Patent US12527329B2, “Compositions and methods relating to insecticides” (priority 2019, dated 2026)
Where two headings read alike, the source gives them in different places.

Key:
[1] = tested on: Aedes aegypti mosquitoes; format: in vivo
Method: This plant essential oil has been screened in combination with natural pyrethrins to assess the ability of this oil and these compositions to increase mortality and knockdown at 24-hr and 1-hr, respectively. […] As described herein, all compounds were dissolved and applied topically in ethanol or acetone.
An example of such synergism can be seen in FIG. 4. FIG. 4 is a graph showing synergism of insecticide (natural pyrethrins, NPs), piperonyl butoxide (PBO), and the combination thereof on mortality (24 hour) of Aedes aegypti mosquitoes. Mosquitoes were treated topically with 0.2 μL of different concentrations of insecticide+1% or 5% (w/v) piperonyl butoxide (PBO) in acetone. Mortality was recorded 24 hr after treatment.
Another example of such synergism is shown in FIG. 5, which is a graph showing antagonism of (natural pyrethrins, NPs), PBO, and the combination on knockdown (1 hour) of Aedes aegypti mosquitoes. Mosquitoes were treated with 0.2 μL different concentrations of insecticide+1% or 5% (w/v) PBO oil in acetone. Mortality was recorded 24 hr after exposure. FIG. 6 is an annotated version of FIG. 5 with arrows denoting statistically significant reduction in knockdown effect.
FIG. 7 is a graph showing synergism of (natural pyrethrins, NPs), fir needle oil, and the combination thereof on knockdown (1 hour) and mortality (24 hour) of Aedes aegypti mosquitoes. Mosquitoes were treated with 0.2 μL of different concentrations of insecticide+1% or 5% (w/v) fir needle oil in acetone. Mortality was recorded 24 hr after exposure.
(§1) Aedes aegypti mosquitoes (susceptible Orlando strain and pyrethroid resistant Puerto Rico strain) were reared using standard protocols and provided by the United States Department of Agriculture—Center of Medical, Agricultural, and Veterinary Entomology (Gainesville, FL). Adult mosquitoes were anesthetized on ice, and the females treated with 0.2 μL of ethanolic solution using a repeating micro-applicator (Hamilton Co., Reno, NV). Ten females were used per concentration and taken from at least three different emerged cohorts. Knockdown (defined as inability to fly or orient in the upright direction) was recorded at 1 hr or other time points post application (depending on the experiment), whereas mortality (defined as no movement—ataxia) was recorded at 24 hr. […] Synergism studies were performed using the maximal sublethal dose of the fir needle oil in combination with varying concentrations of insecticide to calculate the LD50 value of the insecticide in combination with the natural synergist. SAS 9.4 software was used to calculate the LD50 values using a PROC PROBIT model with Abbott's correction to account for any control mortality. Synergist ratios were calculated as: KD50 or LD50 of compound alone÷KD50 or LD50 of compound+Fir needle oil.

[2] = tested on: pyrethroid-resistant Aedes aegypti strain (Puerto Rico); assay: Topical application on the pyrethroid-resistant Puerto Rico strain: 24-hr LD50 and 1-hr KD50; format: in vivo; design: unit not given beside the values; conditions: alone or with FNO 5%
Method: as §1

[3] = tested on: pyrethroid-susceptible strain of Aedes aegypti (Orlando); format: in vivo; conditions: topical; for KD50: 1-hr; for LD50: 24-hr
Method: as §1

[4] = tested on: ethoxycoumarin de-ethylase (cytochrome P450 mono-oxygenase); assay: Ethoxycoumarin de-ethylase activity assay on homogenates of topically treated mosquitoes; format: biochemical, Aedes aegypti; conditions: 0.2 μL of 5% (w/v) topically, 4 hr before homogenization; ANOVA with Tukey's posttest, P<0.05 (FIG. 9)
Method: Ethoxycoumarin de-ethylase activity was measured according the methods of Anderson and Zhu (2004) with minor modifications. In short, mosquitoes were treated with 0.2 μL of fir needle oil or delta-carene 5% w/v solution in ethanol and incubated for 4 hr prior to sacrificing treated insects. Approximately 100 insects were homogenized in 0.1 PBS solution, and homogenates centrifuged at 10,000×g for 20 minutes at 4° C. The resulting supernatant containing microsomes was then used as the enzyme preparation for the remainder of the assay. In each well, 20 μL of enzyme preparation was added to a final volume of 100 μL 0.1 PBS containing 250 μM reduced β-NADPH and 2 mM ethoxycoumarin. After adding the enzyme solution to the wells, plates were incubated at room temperature for 3 hr. After 3 hr incubation, 10 μL of 3.2 mM of oxidized glutathione was added to each well and 1 U of yeast glutathione reductase was added to each well. […] Fluorescence values were then read at 390/465 nm excitation/[…].

[5] = 1-hr knockdown, topical, insecticide with or without 1% fir needle oil, ng dose per mg insect body weight

Row | SMILES | KD50 ([3]; alone or with FNO 5%) [ng/mg] | LD50 ([3]; alone or with FNO 5%) [ng/mg] | other results
1 | CC1(C)[C@H](C(=O)O[C@H](C#N)c2cccc(Oc3ccccc3)c2)[C@@H]1C=C(Br)Br [Deltamethrin, (S)-α-cyano-3-phenoxybenzyl (1R)-cis-3-(2,2-dibromovinyl)-2,2-dimethylcyclopropanecarboxylate] |  |  | KD50 [1, 5]: 0.003 ng/mg
2 | O=[N+]([O-])N=C1NCCN1Cc1ccc(Cl)nc1 [Imidacloprid, 1-(6-chloro-3-pyridylmethyl)-N-nitroimidazolidin-2-ylideneamine] | 3.7 | 1.1 | KD50 [2]: 10.7
3 | N#Cc1nn(-c2c(Cl)cc(C(F)(F)F)cc2Cl)c(N)c1[S+]([O-])C(F)(F)F (stereo not shown) [Fipronil] | 10.7 | 0.1 | 
4 | CNC(=N[N+](=O)[O-])NCc1cnc(Cl)s1 [Clothianidin, 1-(2-Chloro-1,3-thiazol-5-ylmethyl)-3-methyl-2-nitroguanidine] | 22 | 4.5 | KD50 [2]: 9.15; KD50 [1, 5]: 22 ng/mg; LD50 ([1]; 24-hr lethal dose, topical, insecticide with or without 1% fir needle oil, ng dose per mg insect body weight): 4.5 ng/mg; KD50 ([3]; clothianidin alone or with 5% w/v FNO, delta-3-carene or bornyl acetate (Table 3)): 22
5 | CC1=CCC2C(C1)C2(C)C (stereo not shown) [delta-carene, delta-3-carene] |  |  | ethoxycoumarin de-ethylase (cytochrome P450 mono-oxygenase) activity versus vehicle-treated mosquitoes [4]: not increasing P450 activity
6 | CC1(C)C(C=C(Cl)Cl)C1C(=O)OCc1cccc(Oc2ccccc2)c1 (racemic) [Permethrin, 3-phenoxybenzyl (1RS)-cis,trans-3-(2,2-dichlorovinyl)-2,2-dimethylcyclopropanecarboxylate] | 0.06 | 0.09 | KD50 ([1]; in vivo): 0.06 ng/mg; LD50 ([1]; in vivo): 0.09 ng/mg
7 | CN1COCN(Cc2cnc(Cl)s2)C1=N[N+](=O)[O-] [Thiamethoxam, 3-((2-chloro-5-thiazolyl)methyl)-5-methyl-4-nitroiminotetrahydro-1,3,5-oxadiazine] | 17.2 | 3.4 | 
